In patent US7323303B2, “Modified β-lactamases and uses thereof” (priority 2003, dated 2008):

Columns and labels:
[1] = biological target: T1, B. licheniformis penP β-lactamase (Bacillus licheniformis, UniProt P00808); assay: Drug screening: E166Cf fluorescence in presence of bacterial β-lactamase culture; assay type: biochemical; parameters: key: −: Decline in fluorescence signal (presence of beta-lactam hydrolysis); +: No decline in fluorescence signal (absence of beta-lactam hydrolysis); conditions: antibiotic 1.0×10^−4 M, E166Cf 1.2×10^−7 M
T1 construct: made in house; host or cells: B. subtilis 1A304 (φ105MU331); whole culture used, not purified
Procedure: (§1) The use of the E166Cf enzyme in screening bacterial β-lactamases against various β-lactam antibiotics was investigated. The principle of our method is that when both E166Cf and bacterial β-lactamase are incubated with ‘β-lactamase-unstable’ antibiotics, the fluorescence of the E166Cf enzyme will be suppressed because of the greater catalytic efficiency of the bacterial enzyme. In contrast, when bacterial β-lactamases are screened against ‘β-lactamase-resistant’ antibiotics, the fluorescence of the E166Cf enzyme will be enhanced because of the poor hydrolytic activity of the bacterial enzyme. Thus, any β-lactam antibiotic that causes the labeled enzyme to increase its fluorescence intensity in the presence of bacterial β-lactamases can be used in clinical treatments.
(§2) The β-lactamase II, penPC β-lactamase and penP β-lactamase were expressed in B. subtilis 1A304 (φ105MU331). These enzymes were prepared according to the procedures described previously (Reference 7: Thomwell, S. J. East, A. K., Errington, J. An efficient expression and secretion system based on Bacillus subtilis phage phi 105 and its uses for the production for B. cereus β-lactamase I. (1993) Gene 133, 47-53) with slight modifications. A bacterial strain was streaked on an agar plate containing 5 μg/ml chloramphenicol, and the plate was incubated at 37° C. for 24 h. A single bacterial colony from the agar plate was inoculated into 100 ml of sterilized BHY medium (37 g/l brain heart infusion and 5 g/l yeast extract) which was then incubated at 37° C. with shaking at 300 rpm overnight. About 7 ml of overnight inoculum was added to a baffled conical flask containing 100 ml of sterilized BHY medium. The inoculated medium was incubated at 37° C. with shaking at 300 rpm. When the optical density of the bacterial culture at 600 nm reached 3.5 to 4.0, the bacterial culture was heated in a water bath at 51° C. for 5 min. Afterwards, the bacterial culture was incubated at 37° C. with shaking at 300 rpm for a further 6 h. The bacterial culture was then harvested and stored at −20° C.
(§3) Fluorescence measurements of the E166Cf enzyme in the presence of bacterial cultures and β-lactam antibiotics were performed on a FLUOstar microplate reader (BMG Labtechnologies) equipped with two sample injectors. Excitation and emission filters of 485 and 520 nm respectively were used. For B. cereus penPC β-lactamase, B. licheniformis penP β-lactamase and B. cereus β-lactamase II, the labeled enzymes were mixed with the bacterial cultures, and the mixtures were made up to 300 μl with 50 mM phosphate buffer (pH 7.0) in a 96-well microtiter plate (Corning Costar). For the purpose of comparison, B. subtilis cultures, which produced no β-lactamase, were set up as negative controls. For E. coli. TEM-1 β-lactamase, the labeled enzymes were mixed with the bacterial cultures without dilution. E. coli. cultures, which produced no β-lactamase, were set up as negative controls for comparison. The antibiotics were then added to the bacterial samples by the injectors.
(§4) The results from the time-resolved fluorescence measurements of the labeled enzyme (1.2×10^−7 M) in the presence of various bacterial cultures and β-lactam antibiotics (1.0×10^−4 M) are shown in FIGS. 23 to 26.

[2] = biological target: T2, B. cereus penPC β-lactamase (Bacillus cereus, UniProt P00809); assay: as above; assay type: biochemical; parameters: key: −: Decline in fluorescence signal (presence of beta-lactam hydrolysis); +: No decline in fluorescence signal (absence of beta-lactam hydrolysis); conditions: antibiotic 1.0×10^−4 M, E166Cf 1.2×10^−7 M
T2 construct: made in house; host or cells: B. subtilis 1A304 (φ105MU331); whole culture used, not purified
Procedure: as §1, §2, §3, §4

[3] = biological target: T3, B. cereus β-lactamase II (Bacillus cereus, UniProt P04190); assay: as above; assay type: biochemical; parameters: key: −: Decline in fluorescence signal (presence of beta-lactam hydrolysis); +: No decline in fluorescence signal (absence of beta-lactam hydrolysis); conditions: antibiotic 1.0×10^−4 M, E166Cf 1.2×10^−7 M
T3 construct: made in house; host or cells: B. subtilis 1A304 (φ105MU331); whole culture used, not purified
Procedure: as §1, §2, §3, §4

[4] = biological target: T4, E166Cf enzyme (Bacillus cereus, UniProt P00809, E185C); assay: Circular dichroism assay of antibiotic hydrolysis by E166Cf; assay type: biochemical; conditions: 1.0×10^−4 M antibiotic, E166Cf 1.2×10^−7 M, one hour incubation
T4 construct: made in house; host or cells: B. subtilis 1A304 (φ105MU331); then labelled chemically
T4 sequence (P00809 28-306 E185C): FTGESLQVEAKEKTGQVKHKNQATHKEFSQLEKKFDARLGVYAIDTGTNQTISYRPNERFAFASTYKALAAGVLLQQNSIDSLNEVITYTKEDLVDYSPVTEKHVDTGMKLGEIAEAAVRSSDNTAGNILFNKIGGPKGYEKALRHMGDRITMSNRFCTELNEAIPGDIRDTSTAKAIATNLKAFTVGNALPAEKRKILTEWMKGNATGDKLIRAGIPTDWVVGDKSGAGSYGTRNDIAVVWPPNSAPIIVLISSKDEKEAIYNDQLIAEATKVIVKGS
Text: The absence of a declining fluorescence signal for cefuroxime, cefoxitin and moxalactam can be ascribed to the poor hydrolytic activities of the E166Cf enzyme towards these antibiotics (very low k2 and/or k3) (FIG. 14). As a result, the cephalosporin substrates stay in the active sites. To verify this, the activities of the labeled enzyme with cefuroxime, cefoxitin and moxalactam as substrates were monitored by circular dichroism (CD) spectropolarimetry. […] Therefore, by measuring the CD signals of cefuroxime, cefoxitin and moxalactam (1.0×10^−4 M) at 258, 264 and 265 nm respectively as a function of time in the presence of E166Cf enzyme (1.2×10^−7 M), the hydrolytic activities of the labeled enzyme towards these antibiotics can be monitored.

[5] = biological target: T4, E166Cf enzyme; assay: Time-resolved fluorescence of E166Cf enzyme with penicillins and cephalosporins; assay type: biochemical; conditions: E166Cf 1.2×10^−7 M, 50 mM phosphate buffer pH 7.0; up to one hour
Procedure: Fluorescence measurements of the E166Cf enzyme in the presence of penicillin G, penicillin V, ampicillin, cefuroxime, cefoxitin and moxalactam were performed on a Perkin Elmer LS50B spectrofluorometer. For time-resolved fluorescence measurement, excitation and emission wavelengths were set at 494 and 515 nm respectively. Both excitation and emission slit widths were set at 5 nm. All fluorescence measurements were performed at room temperature.
With penicillin G as substrate, the fluorescence signal of the E166Cf enzyme (1.2×10^−7 M) at 515 nm in 50 mM phosphate buffer (pH 7.0) increases as a function of the antibiotic concentration (FIG. 4). The time-resolved fluorescence signals of the E166Cf enzyme at 515 nm were also measured with various concentrations of penicillin G (FIG. 5). At low antibiotic concentration (1.0×10^−7 and 1.0×10^−6 M), the fluorescence intensity of the E166Cf enzyme increases gradually and then declines. At high antibiotic concentration (1.0×10^−5 and 1.0×10^−4 M), the fluorescence signal increases instantaneously and levels off to a plateau. The fluorescence signal stays at the plateau for a certain length of time and then declines afterwards. Similar results were obtained with penicillin V and ampicillin (FIGS. 6 and 7).
With cefuroxime, cefoxitin and moxalactam as substrates, the fluorescence intensities of the E166Cf enzyme (1.2×10^−7 M) at 515 nm in 50 mM phosphate buffer (pH 7.0) also increase as a function of antibiotic concentration (FIGS. 8 to 10).
(§5) At high substrate concentration (1.0×10^−5 and 1.0×10^−4 M), the penicillin substrates rapidly occupy the active sites to form the ES complexes, thus switching on the fluorescence of the fluorescein labels instantaneously. […] This can be verified by the fact that the ‘plateau time’ (8 and 22 min for 1.0×10^−5 and 1.0×10^−4 M penicillin G respectively) is consistent with the ‘substrate hydrolysis time’ determined by spectrophotometric assays (7 and 20 min for 1.0×10^−5 and 1.0×10^−4 M penicillin G respectively). When most of the penicillin substrates have been hydrolyzed to carboxylic acids, the fluorescence signal of the labeled enzyme will decline subsequently.

[6] = biological target: T5, E. coli TEM-1 β-lactamase (Escherichia coli, UniProt P62593); assay: Drug screening: E166Cf fluorescence in presence of bacterial β-lactamase culture; assay type: biochemical; parameters: key: −: Decline in fluorescence signal (presence of beta-lactam hydrolysis); +: No decline in fluorescence signal (absence of beta-lactam hydrolysis); conditions: E. coli TEM-1 culture, undiluted; antibiotic 1.0×10^−4 M; E166Cf 1.2×10^−7 M
T5 construct: made in house; host or cells: E. coli BL21(DE3); whole overnight culture used undiluted, not purified
Procedure: as §1
The TEM-1 β-lactamase was expressed in E. coli. BL21(DE3). Preparation of the TEM-1 β-lactamase was performed as follows. A bacterial strain was streaked on an agar plate containing 100 μg/ml ampicillin, and the plate was incubated at 37° C. for 24 h. A single bacterial colony from the plate was inoculated into 100 ml of sterilized LB broth (28 g/l) which was then incubated at 37° C. with shaking at 280 rpm overnight. After overnight incubation, the bacterial culture was harvested and stored at −20° C.
as §3, §4

[7] = biological target: T6, E166Cf (fluorescein-labeled E166C mutant of β-lactamase I) (Bacillus cereus, UniProt P00809, E185C); assay: Spectrophotometric substrate hydrolysis, steady-state kinetics; assay type: biochemical; conditions: E166Cf; 50 mM potassium phosphate buffer pH 7.0, 20° C.
T6 construct: made in house; host or cells: B. subtilis 1A304 (φ105MU331); then labelled chemically
T6 sequence (P00809 28-306 E185C): T4 sequence (P00809 28-306 E185C)
Procedure: (§6) The hydrolytic activities of the wild-type β-lactamase I, E166C and E166Cf mutants towards penicillin G, penicillin V and ampicillin (Sigma) were monitored by the spectrophotometric method. The spectrophotometric measurements were performed on a Perkin Elmer Lambda Bio20 UV/Vis spectrometer. Substrate hydrolysis was monitored at a fixed wavelength: 235 nm for ampicillin, 232 nm for penicillin G and penicillin V. The initial rate of substrate hydrolysis occurring within 5 min was determined in duplicate at each of 6 different substrate concentrations in 50 mM potassium phosphate buffer (pH 7.0) at 20° C. The initial rates determined were then treated as described in Reference 5 to calculate the Michaelis constants (Km) and turnover numbers (kcat) using non-linear regression analysis (equation 1):
(§7) [formula] where v is the initial rate of substrate hydrolysis, Vmax the maximum rate of reaction, [S] the initial substrate concentration, Km the Michaelis constant and kcat=Vmax/[Enzyme].
(§8) The measured steady-state kinetic parameters for hydrolysis of penicillin G, penicillin V and ampicillin by the wild-type β-lactamase I, E166C and E166Cf mutants are summarized in Table 1.
as §5

[8] = biological target: T7, wild-type β-lactamase I (Bacillus cereus, UniProt P00809); assay: as above; assay type: biochemical; conditions: 50 mM potassium phosphate buffer pH 7.0, 20° C.
T7 construct: made in house; host or cells: B. subtilis 1A304 (φ105MU331)
Procedure: as §6, §7, §8

[9] = biological target: T8, E166C mutant of β-lactamase I (Bacillus cereus, UniProt P00809, E185C); assay: as above; assay type: biochemical; conditions: 50 mM potassium phosphate buffer pH 7.0, 20° C.
T8 construct: made in house; host or cells: B. subtilis 1A304 (φ105MU331)
T8 sequence (P00809 28-306 E185C): T4 sequence (P00809 28-306 E185C)
Procedure: as §6, §7, §8

[10] = biological target: T4, E166Cf enzyme; assay: Time-resolved fluorescence of E166Cf enzyme with β-lactamase inhibitors; assay type: biochemical; conditions: 1.0×10^−3 M inhibitor; E166Cf 1.2×10^−7 M, 50 mM phosphate buffer pH 7.0
Procedure: Time-resolved fluorescence measurements of the E166Cf enzyme in the presence of sulbactam and clavulanate were performed on a Perkin Elmer LS50B spectrofluorometer. The excitation and emission wavelengths were set at 494 and 515 nm respectively. Both excitation and emission slit widths were set at 5 nm. All fluorescence measurements were performed at room temperature.
The fluorescence signals of the labeled enzyme (1.2×10^−7 M) obtained with sulbactam (1.0×10^−4 M) and clavulanate (1.0×10^−3 M) in 50 mM phosphate buffer (pH 7.0) are entirely different (FIGS. 18 and 19).

[11] = tested on: CC1(C)S[C@@H]2[C@H](NC(=O)[C@H](N)c3ccccc3)C(=O)N2[C@H]1C(=O)O; assay: Spectrophotometric substrate hydrolysis, steady-state kinetics; assay type: biochemical, Bacillus cereus; conditions: other: Wild-type, 50 mM potassium phosphate buffer pH 7.0, 20° C.
Procedure: as §6, §7, §8

T1 sequence (P00808 27-307): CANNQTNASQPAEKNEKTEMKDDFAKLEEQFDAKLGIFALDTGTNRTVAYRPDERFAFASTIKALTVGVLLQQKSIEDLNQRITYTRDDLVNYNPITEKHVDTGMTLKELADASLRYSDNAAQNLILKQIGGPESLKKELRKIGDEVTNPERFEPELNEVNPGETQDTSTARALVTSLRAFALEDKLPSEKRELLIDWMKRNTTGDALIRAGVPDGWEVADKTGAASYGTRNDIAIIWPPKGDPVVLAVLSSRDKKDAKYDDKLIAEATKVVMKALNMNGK
T5 sequence (P62593 24-286 limits assumed): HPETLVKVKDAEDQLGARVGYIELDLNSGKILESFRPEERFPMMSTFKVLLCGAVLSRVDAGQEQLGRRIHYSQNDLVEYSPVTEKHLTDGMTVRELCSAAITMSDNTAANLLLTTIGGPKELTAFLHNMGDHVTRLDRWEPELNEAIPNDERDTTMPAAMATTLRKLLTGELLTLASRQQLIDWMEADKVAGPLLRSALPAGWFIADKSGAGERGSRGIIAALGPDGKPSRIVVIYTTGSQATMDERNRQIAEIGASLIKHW
T2 sequence (P00809 28-306): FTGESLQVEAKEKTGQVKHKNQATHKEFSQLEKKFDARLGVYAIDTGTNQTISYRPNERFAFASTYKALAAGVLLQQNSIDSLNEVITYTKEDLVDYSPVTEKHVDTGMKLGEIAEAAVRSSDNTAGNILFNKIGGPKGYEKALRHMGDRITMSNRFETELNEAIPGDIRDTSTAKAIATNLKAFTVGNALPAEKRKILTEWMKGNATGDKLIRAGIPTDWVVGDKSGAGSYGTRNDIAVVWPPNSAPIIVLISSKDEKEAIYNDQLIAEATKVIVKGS
T3 sequence (P04190 31-257): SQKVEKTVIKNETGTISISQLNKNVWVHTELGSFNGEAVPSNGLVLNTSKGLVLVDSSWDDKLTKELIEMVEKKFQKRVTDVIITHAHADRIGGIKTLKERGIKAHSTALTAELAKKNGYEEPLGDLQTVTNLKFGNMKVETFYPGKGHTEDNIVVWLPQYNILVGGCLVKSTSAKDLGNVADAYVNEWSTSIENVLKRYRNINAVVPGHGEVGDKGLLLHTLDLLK
T7 sequence (P00809 28-306): as the sequence (P00809 28-306) above

Row | Compound | fluorescence signal of E166Cf (beta-lactam hydrolysis) [1] | fluorescence signal of E166Cf (beta-lactam hydrolysis) [2] | fluorescence signal of E166Cf (beta-lactam hydrolysis) [3] | change in CD signal of antibiotic (hydrolysis by E166Cf) [4] | time course of E166Cf fluorescence signal at 515 nm [5] | fluorescence signal of E166Cf (beta-lactam hydrolysis) [6] | further results
1 | CO[C@@]1(NC(=O)Cc2cccs2)C(=O)N2C(C(=O)O)=C(COC(N)=O)CS[C@@H]21 [Cefoxitin, cefoxitin] | + | + | + | no significant changes in the CD signals | no subsequent decline in intensity was observed | + | 
2 | CO/N=C(\C(=O)N[C@@H]1C(=O)N2C(C(=O)O)=C(COC(N)=O)CS[C@H]12)c1ccco1 [Cefuroxime, cefuroxime] | − | + | − | no significant changes in the CD signals | no subsequent decline in intensity was observed | + | 
3 | CO[C@@]1(NC(=O)C(C(=O)O)c2ccc(O)cc2)C(=O)N2C(C(=O)O)=C(CSc3nnnn3C)CO[C@@H]21 (some centres unmarked) [Moxalactam, moxalactam] | + | + | + | no significant changes in the CD signals | no subsequent decline in intensity was observed | + | 
4 | CC1(C)S[C@@H]2[C@H](NC(=O)COc3ccccc3)C(=O)N2[C@H]1C(=O)O [Penicillin V, penicillin V] | − | − | − |  |  | − | Km [7]: 117 ± 10 µM; kcat [7]: 2.97 ± 0.06 s⁻¹; Km [8]: 52 ± 4 µM; kcat [8]: 2109 ± 4 s⁻¹; Km [9]: 71 ± 6 µM; kcat [9]: 1.53 ± 0.03 s⁻¹
5 | O=C(O)[C@H]1/C(=C/CO)O[C@@H]2CC(=O)N21 [clavulanate] |  |  |  |  |  |  | time course of E166Cf fluorescence signal at 515 nm [10]: instantaneous increase in fluorescence signal which declines rapidly within 200 s and then levels off to a plateau
6 | wild-type β-lactamase I (Bacillus cereus) |  |  |  |  |  |  | Km [11]: 142 ± 8 µM; kcat [11]: 5210 ± 275 s⁻¹; kcat/Km [11]: 3.7e+07 ± 4e+06 M⁻¹ s⁻¹
